Reference: US8795997B2 (priority 2009, dated 2014)
Like-named read-outs stand apart in the source and are kept apart here.

How the values were obtained:
Format in all cases: cell-based
[1] = test system: yeast Saccharomyces cerevisiae; assay: Simultaneous saccharification and fermentation (SSF) of sugarcane bagass slurry; conditions: for Fermentability: 7.5 and 10 mM, 13 and 45 hours (FIG. 9)
Description: The pretreatment of sugarcane bagass for SSF experiments was performed in the Swedish cellulosic ethanol pilot plant (operated by SEKAB E-Technology, Örnskoldsvik, Sweden). Sugarcane bagass was treated in a continuous mode in a 30-liter reactor at a temperature of 198-199° C. and with a residence time of 13-14 min. The feed rate was 24 kg (dry weight) per h and the bagass was impregnated with sulfur dioxide (0.5 kg/h). The pH after pretreatment was 2.7. The dry matter content was 19%. The pretreated material was cooled and stored at 4° C. until further use.
SSF experiments were also performed with sugarcane bagass slurries. The sugarcane bagass slurries were prepared as described in Example 1. Reducing agents, dithionite and sulphite, respectively, were added 10 min prior to inoculum in concentrations of studied 7.5 and 10 mM. The ethanol concentration was measured after 13 and 45 hours according to the protocol described in Example 1.

[2] = test system: yeast Saccharomyces cerevisiae; assay: Simultaneous saccharification and fermentation (SSF) of spruce slurry; conditions: for Final ethanol concentration: after 70 hours
Description: Addition of sodium dithionite and sodium sulphite was tested in an SSF process. Spruce was pretreated as described in Example 1 above. The spruce slurry was adjusted to pH 5.4 with a 5 M solution of sodium hydroxide. Ten 250-mL shake flasks equipped with magnetic stirrer bars were filled with 100 g of spruce slurry. Sodium dithionite or sodium sulphite was added to the slurries to final concentrations of 7.5 and 10 mM. The additions were performed at room temperature (23° C.) for 10 min with stirring. Duplicate experiments were made. Cellulase and cellobiase preparations were prepared and added to the slurry using the enzyme activity loadings as described in Example 1 above. Further, the yeast inoculum was prepared according to Example 1 above. Inoculums were added to give a start concentration of 2.0 g/L (cell dry weight) in every flask. No source of extra nutrients was added. For comparison, two flasks with spruce slurry to which no reducing agents had been added were included in the experiment. The flasks were incubated at 35° C. for 69 h in a water bath with magnetic stirring. The flasks were sealed with Parafilm (Pechiney Plastic Packaging Company, Chicago, Ill., USA) to prevent evaporation of ethanol. Samples were withdrawn for analysis of ethanol according to Examplel above.
A spruce slurry was prepared according to Examples 1 and 2 above. Different flasks were filled with 100 g each of the spruce slurry and were subjected to a SSF process according to Example 2 above, but with different amounts of dithionite and sulphite added. The produced ethanol was monitored during the fermentation. […]

[3] = test system: baker's yeast (Saccharomyces cerevisiae)
Description: The pH of the sugarcane bagass and spruce hydrolysates were adjusted to 5.5 with a 5 M solution of sodium hydroxide. The conditioning of each hydrolysate was performed in eight 100-mL glass vessels equipped with magnetic stirrer bars. 26 mL hydrolysate was added to all vessels, and the vessels were placed on a magnetic stirrer plate (IKA-Werke, Staufen, Germany). Sodium dithionite (chemical grade; >87%, Merck, Darmstadt, Germany) was added to hydrolysates in the concentrations 5 and 10 mM. Additions of sodium sulphite to 5 and 10 mM were also performed. The additions were made at room temperature (23° C.) and the samples were kept for 10 min with stirring. The experiments were performed in duplicates.
The efficiency of the additions of the reducing agents was compared with alkali detoxification.
Ethanol measurements were performed by using an enzymatic kit (Ethanol UV-method, Boehringer Mannheim GmbH, Mannheim, Germany). Fermentation experiments were performed to evaluate the effectiveness of the additions and treatments. For comparison, untreated hydrolysates were included in the fermentation experiments as well as reference fermentations of sugar-based medium with an amount of fermentable sugars (i.e. glucose and mannose) corresponding to that in the hydrolysate samples. The fermentations were carried out using baker's yeast (Saccharomyces cerevisiae) (Jastbolaget AB, Rotebro, Sweden). The yeast inoculum was prepared in 750-mL cotton-plugged shake flasks with 300 mL YEPD medium (2% yeast extract, 1% peptone, 2% D-glucose). The flasks were inoculated and incubated with agitation at 30° C. for approximately 12 h. The cells were harvested in the late exponential growth phase by centrifugation (Hermla Z206A, Hermle Labortechnik GmbH, Wehingen, Germany) at 1,500 g for 5 min. The cells were resuspended in an appropriate amount of sterile water to achieve an inoculum consisting of 2.0 g/L (cell dry weight) in all fermentation vessels. The fermentation was carried out in 14 25-mL glass flasks equipped with magnets for stirring and sealed with rubber plugs pierced with cannulas for letting out carbon dioxide. The hydrolysate samples (23.75 mL), or alternatively the sugar solution for reference fermentations, were added to the fermentation flasks along with 0.5 mL of a nutrient solution (150 g/L yeast extract, 75 g/L (NH4)2HPO4, 3.75 g/L MgSO4.7H2O, 238.2 g/L NaH2PO4.H2O), and 0.75 mL of yeast inoculum. The flasks were incubated at 30° C. in a water bath with magnetic stirring (IKA-Werke). Samples for measurement of sugars and ethanol were withdrawn during the fermentation. The glucose levels during the fermentation were estimated by using a glucometer (Glucometer Elite XL, Bayer AG, Leverkusen, Germany).

[4] = spruce hydrolysate, 10 mM (FIGS. 1 and 2)
[5] = spruce hydrolysate, 14 h fermentation, 10 mM
[6] = 6 h fermentation, NH4OH detoxification, pH 9, 55° C., 3 h
[7] = spruce hydrolysate, 14 h fermentation, NH4OH detoxification, pH 9, 55° C., 3 h

Row | SMILES | Fermentability [1] | Final ethanol concentration ([2]; 2.5 mM) | Final ethanol concentration ([2]; 5 mM) | Final ethanol concentration ([2]; 7.5 mM) | Final ethanol concentration ([2]; 10 mM) | Final ethanol concentration ([2]; 15 mM) | Final ethanol concentration ([2]; 20 mM) | Final ethanol concentration ([2]; 30 mM) | Ethanol production compared to untreated ([2]; 7.5 and 10 mM (FIG. 5)) | Balanced ethanol yield ([3]; 6 h fermentation, 10 mM) | Productivity ([3]; 6 h fermentation, 10 mM) [g EtOH×L^−1×h^−1] | Yield (ethanol) ([3]; 6 h fermentation, 10 mM) | Glucose consumption rates and amounts of ethanol produced [3, 4] | Balanced ethanol yield [3, 5] | Productivity [3, 5] [g EtOH×L^−1×h^−1] | Yield (ethanol) [3, 5] | also measured
1 | O=S([O-])S(=O)[O-].[Na+].[Na+] [Dithionite, Sodium dithionite] | improved fermentability | about 10 g/L | 35 to 40 g/L | highest ethanol production | highest ethanol production | highest ethanol production | 35 to 40 g/L | about 30 g/L | higher ethanol production compared to the untreated hydrolysate | 0.28 g EtOH/Σglucose & mannose prior to detoxification | 3.9 | 0.34 g EtOH/g consumed glucose & mannose | comparable to those of the reference fermentation | 0.34 g EtOH/Σglucose & mannose prior to detoxification | 2.5 | 0.37 g EtOH/g consumed glucose & mannose | Ethanol production, dithionite compared with sulphite ([1]; 10 and 7.5 mM (FIG. 9)): better than any of the sulphite concentrations; Ethanol levels and ethanol formation ([2]; 7.5 mM, compared with 10 mM dithionite (FIG. 5)): reached the same high levels of ethanol, but ethanol formation was slightly slower; Time after which ethanol formation leveled off ([2]; 10 mM (FIG. 5)): about 45 h; Improvement of ethanol production, dithionite compared with sulphite ([2]; 10 mM (FIG. 8)): better improvement than the addition of sulphite; Ethanol concentration compared with other additions ([3]; 10 mM (FIG. 4)): higher ethanol concentration compared to addition of 5 mM dithionite or 10 mM sulphite; Glucose consumption rates and amounts of ethanol produced ([3]; spruce hydrolysate, 5 mM (FIGS. 1 and 2)): substantial improvement compared to untreated hydrolysate
2 | N [NH4OH, ammonium hydroxide, reference compound] |  |  |  |  |  |  |  |  |  |  |  |  |  |  |  |  | Balanced ethanol yield [3, 6]: 0.25 g EtOH/Σglucose & mannose prior to detoxification; Productivity [3, 6]: 3.5 g EtOH×L^−1×h^−1; Yield (ethanol) [3, 6]: 0.34 g EtOH/g consumed glucose & mannose; Balanced ethanol yield [3, 7]: 0.37 g EtOH/Σglucose & mannose prior to detoxification; Productivity [3, 7]: 2.8 g EtOH×L^−1×h^−1; Yield (ethanol) [3, 7]: 0.43 g EtOH/g consumed glucose & mannose
3 | O=S([O-])[O-].[Na+].[Na+] [Sulphite, sodium sulphite] | improved fermentability | did not result in as high final ethanol concentrations | did not result in as high final ethanol concentrations | 35 to 40 g/L | 35 to 40 g/L | about 40 g/L | about 40 g/L | about 40 g/L | higher ethanol production compared to the untreated hydrolysate | 0.21 g EtOH/Σglucose & mannose prior to detoxification | 2.9 | 0.32 g EtOH/g consumed glucose & mannose | substantial improvement compared to untreated hydrolysate | 0.16 g EtOH/Σglucose & mannose prior to detoxification | 1.2 | 0.29 g EtOH/g consumed glucose & mannose | Ethanol production compared with dithionite samples ([2]; 7.5 and 10 mM (FIG. 5)): lower ethanol production compared to the samples to which dithionite was added; Time after which ethanol formation leveled off ([2]; 7.5 and 10 mM (FIG. 5)): 20 h
